Laboratory results from patent publication US7655816B2, “Method for stabilizing menthyl lactate” (Millennium Specialty Chemicals, priority 2007, dated 2010).

Format: physicochemical
Details: for acid number after storage / odor after storage / GC purity after storage / appearance after storage: after storage for 39 months in a closed glass jar
Description: Precipitation according to the method of the invention provides menthyl lactate having improved stability compared with that of an unprecipitated sample. By “improved stability,” we mean that one or more important physical properties of the menthyl lactate becomes more constant as a function of time as a consequence of precipitation when compared with menthyl lactate that has not been precipitated according to the method. Important physical properties include, without limitation, appearance, dimensional stability, color, texture, organoleptic properties (odor, flavor), melting point, acid number, GC purity, optical rotation, pH, solubility, and the like. Preferably, the ML retains its desirable physical property or properties even after prolonged storage. “Prolonged” depends on the particular application, but it is preferably at least one week, more preferably at least one month, and most preferably at least one year.
After storage for 39 months in a closed glass jar, the product is evaluated for quality.
A sample of solid menthyl lactate from the same batch that was used in Example 1 is stored under similar conditions for the same 39 months. […] Mp: 39.3° C.; GC purity: <96%; acid number: 32 mg KOH/g.

melting point after storage | acid number after storage | odor after storage | GC purity after storage | appearance after storage | SMILES
43.6 °C | 0.27 mg KOH/g | some deterioration of odor quality |  |  | CC1CCC(C(C)C)C(OC(=O)C(C)O)C1 (stereo not drawn) [Comparative Example 4, menthyl lactate]
36.7 °C | 20 mg KOH/g | strong, pungent acidic odor | 92% | shrinks | CC1CCC(C(C)C)C(OC(=O)C(C)O)C1 (stereo not drawn) [Comparative Example 3, menthyl lactate]
43.7 °C | 0.32 mg KOH/g | strong, pungent acidic odor | 97% |  | CC1CCC(C(C)C)C(OC(=O)C(C)O)C1 (stereo not drawn) [compound 5, menthyl lactate]
43.9 °C | 0.15 mg KOH/g | faint, minty | ≥ 99.8% | fine, white crystalline powder | CC1CCC(C(C)C)C(OC(=O)C(C)O)C1 (stereo not drawn) [Example 1, menthyl lactate]
39.3 °C | 32 mg KOH/g | strong, pungent acidic odor | < 96% |  | CC1CCC(C(C)C)C(OC(=O)C(C)O)C1 (stereo not drawn) [compound 2, menthyl lactate]
